Key:
[1] = tested on: purified PARG; assay: ATP sensitivity of purified PARG (PAR chain length, substrate concentration); format: biochemical; conditions: 45 minutes
Procedure: Poly(ADP-ribose)glycohydrolase (PARG) is purchased from Biomol or Alexis Co, which enzymes are equal in performance. Jurkat cells are cultured as reported (Buday et al. (1996) J Biol Chem 271:6159-6163) and nuclei are prepared by a published method (Smirnova et al. (2000) J Biol Chem 275:9377-9384). Enzymatic assays for PARP-1 are performed as published (deMurcia (2000) From DNA-damage and Stress Signalling to Cell Death: Poly ADP-ribosylation Reactions). PARG activity is analyzed with polyADP-ribosylated PARP-1 as substrate, containing long chains synthesized with spermine as cofactor (Kun et al. (2004) Biochemistry 43:210-216), or short chains where the cofactor is histone H1. The polyADP-ribose is labeled either with 3H or by biotinylated-NAD. PARG activity is quantitatively measured either by assaying the liberated 3H-ADP-ribose by TLC (Kirsten et al. (1991) Exp Cell Res 194:1-8) (chromatography carried out on PEI-cellulose sheets with 0.9 M acetic acid and 0.3 M LiCl as solvent) or by immunoassay of the remaining biotinylated (ADP-ribose)n (Bakondi et al. (2004) Exp Dermatol 13:170-178). All other reagents are of highest analytical purity. Short (Δ-Δ)- or long ([…]-[…])-chain PAR-PARP molecules are prepared as described in the methods and attached to the surface of assay wells. Purified PARG (15 mU/assay) is added to the wells in the presence of various concentrations of ATP and incubated for 45 minutes. The attached amount of polymers is determined in triplicate experiments (zero minute values for short chains were 0.5 OD, and 1.8 OD for long chain polymers). PARG (15 mU/assay) is incubated with various concentrations of 32P-PAR (long chain polymer) in the presence or absence of 6 mM of ATP for 45 minutes and the amount of liberated 32P-ADP-ribose is determined by TLC and liquid scintillation of the cut out portions of the plate located by autoradiography. Experiments are performed in triplicate.

[2] = biological target: T1, PARP-1 activity of Jurkat cell nuclei (Homo sapiens, UniProt P09874); assay: Effect of ATP on the PARP-1 activity of Jurkat cell nuclei; format: biochemical; conditions: 1 mM ATP; isolated Jurkat cell nuclei; FIG. 2
T1 construct: endogenous in cells; host or cells: Jurkat cell nuclei
Procedure: Poly(ADP-ribose)glycohydrolase (PARG) is purchased from Biomol or Alexis Co, which enzymes are equal in performance. Jurkat cells are cultured as reported (Buday et al. (1996) J Biol Chem 271:6159-6163) and nuclei are prepared by a published method (Smirnova et al. (2000) J Biol Chem 275:9377-9384). Enzymatic assays for PARP-1 are performed as published (deMurcia (2000) From DNA-damage and Stress Signalling to Cell Death: Poly ADP-ribosylation Reactions). PARG activity is analyzed with polyADP-ribosylated PARP-1 as substrate, containing long chains synthesized with spermine as cofactor (Kun et al. (2004) Biochemistry 43:210-216), or short chains where the cofactor is histone H1. The polyADP-ribose is labeled either with 3H or by biotinylated-NAD. PARG activity is quantitatively measured either by assaying the liberated 3H-ADP-ribose by TLC (Kirsten et al. (1991) Exp Cell Res 194:1-8) (chromatography carried out on PEI-cellulose sheets with 0.9 M acetic acid and 0.3 M LiCl as solvent) or by immunoassay of the remaining biotinylated (ADP-ribose)n (Bakondi et al. (2004) Exp Dermatol 13:170-178). All other reagents are of highest analytical purity. […] After separating the proteins on a 8% SDS-PAGE gel, the nitrocellulose-blotted, labeled proteins are detected by incubating with streptavidine-HPO complex (1 μg/ml) and by fluorography. Triplicate results are expressed as densitometric units.

[3] = biological target: T2, PARG activity of Jurkat cell nuclear extract (Homo sapiens, UniProt Q86W56); assay: Effect of ATP on the glycohydrolase activity of Jurkat cell nuclear extract; format: biochemical; conditions: 8 mM ATP; polyADP-ribosylated PARP-1 with long polymers (50 ADP-ribose units); FIG. 4
T2 construct: endogenous in cells; host or cells: Jurkat cell nuclear extract
Procedure: Poly(ADP-ribose)glycohydrolase (PARG) is purchased from Biomol or Alexis Co, which enzymes are equal in performance. Jurkat cells are cultured as reported (Buday et al. (1996) J Biol Chem 271:6159-6163) and nuclei are prepared by a published method (Smirnova et al. (2000) J Biol Chem 275:9377-9384). Enzymatic assays for PARP-1 are performed as published (deMurcia (2000) From DNA-damage and Stress Signalling to Cell Death: Poly ADP-ribosylation Reactions). PARG activity is analyzed with polyADP-ribosylated PARP-1 as substrate, containing long chains synthesized with spermine as cofactor (Kun et al. (2004) Biochemistry 43:210-216), or short chains where the cofactor is histone H1. The polyADP-ribose is labeled either with 3H or by biotinylated-NAD. PARG activity is quantitatively measured either by assaying the liberated 3H-ADP-ribose by TLC (Kirsten et al. (1991) Exp Cell Res 194:1-8) (chromatography carried out on PEI-cellulose sheets with 0.9 M acetic acid and 0.3 M LiCl as solvent) or by immunoassay of the remaining biotinylated (ADP-ribose)n (Bakondi et al. (2004) Exp Dermatol 13:170-178). All other reagents are of highest analytical purity. Poly(ADP-ribosylated)-PARP-1 (2 μg protein is incubated with 50 μM of biotinylated-NAD as described above) and is attached to the walls of 96-well plates. ([…] et al. (1989) Nucl. Acids Res. 17:5404). […]

[4] = biological target: T3, PARP-1 arginine-34 mutant (R34G, Zn2+ finger 1) (Homo sapiens, UniProt P09874, R34G); assay: Enzymatic activity of arginine-34 (R34G) mutant PARP-1 with ATP; format: biochemical; conditions: arginine-34 replaced by glycine in Zn2+ finger 1; 200 μM NAD+, 3 mM spermine, pH 7.3; FIG. 1
T3 construct: made in house; host or cells: Sf9 (baculovirus)
Source text: (§1) PARP-1 is purified from calf thymus as reported earlier (Molinet et al. (1993) EMBO J. 12:2109-2117). Alternatively recombinant PARP-1 is isolated from Sodoptera Fugiperda (Sf9) cells infected with recombinant baculovirus, expressing the human PARP-1 gene, constructed according to the instructions of Pharmingen. The cDNA of the amino acid exchange mutant R34G and R138 il of PARP-1 is created by the mega primer method (Kannann et al. (1989) Nucl Acids Res 17:5404). The mutated gene is cloned into the transfer vector pV 1392 and the recombinant virus is generated by the Baculogold technology of Pharmigen. The mutated proteins are expressed in Sf9 cells, purified and assayed as reported (Huang et al. (2004) Biochemistry 43:217-223; Kirsten et al. (2004) Methods in Molecular Biology 287, Epigenetics Protocols 137-149).
(§2) Assays are carried out as described (Kun et al. (2004) Biochemistry, 43:210-216) in triplicate (200 μM 3H labeled NAD+, 28 dpm/pmol, 0.5 pmol PARP-1, 3 mM spermine, pH 7.3 t=7.5 min). Identical results are obtained when ATP is replaced by its non-hydrolysable analog (Kun et al. (2004) Biochemistry, 43:210-216).

[5] = biological target: T1, PARP-1 activity of Jurkat cell nuclei; assay: Effect of BCNU on the ATP sensitivity of PARP-1 activity of Jurkat cell nuclei; format: biochemical; conditions: nuclei pre-incubated with 400 nM BCNU for 30 minutes; FIG. 3
Procedure: Nuclei equivalent to 2×10^5 Jurkat cells are pre incubated in the presence of various concentrations of ATP. Then PARP activities are assayed by admixing biotinylated-NAD (5 μM final conc.) and incubating for ten minutes. After separating the proteins on a 8% SDS-PAGE gel, the nitrocellulose-blotted, labeled proteins are detected by incubating with streptavidine-HPO complex (1 μg/ml) and by fluorography. Triplicate results are expressed as densitometric units. Experiments in triplicate are carried out as described in FIG. 2, with the exception that pre incubation is done with 400 nM of BCNU for 30 minutes.

[6] = biological target: T4, PARP-1 arginine-138 mutant (isoleucine, Zn2+ finger 2) (Homo sapiens, UniProt P09874, R138I); assay: Enzymatic activity of arginine-138 (R138I) mutant PARP-1 with ATP; format: biochemical; conditions: arginine-138 mutated to isoleucine in Zn2+ finger 2; FIG. 1
T4 construct: made in house; host or cells: Sf9 (baculovirus)
Source text: as §1, §2

[7] = tested on: solid tumor colon cancer; assay: Treatment of a subject suffering from solid tumor colon cancer; format: in vivo; conditions: orally or parenterally; after few days
Procedure: A subject suffering from solid tumor colon cancer is treated with a therapeutically effective amount of compound of formula
(§3) where the compound is administered orally or parenterally.

[8] = tested on: inflammation; assay: Treatment of a subject suffering from inflammation; format: in vivo; conditions: orally or parenterally; after few days
Procedure: A subject suffering from inflammation is treated with a therapeutically effective amount of compound of formula
as §3

[9] = tested on: CNS disease; assay: Treatment of a subject suffering from CNS disease; format: in vivo; conditions: orally or parenterally; after few days
Procedure: A subject suffering from CNS disease is treated with a therapeutically effective amount of compound of formula
as §3

T1 sequence (P09874 whole entry): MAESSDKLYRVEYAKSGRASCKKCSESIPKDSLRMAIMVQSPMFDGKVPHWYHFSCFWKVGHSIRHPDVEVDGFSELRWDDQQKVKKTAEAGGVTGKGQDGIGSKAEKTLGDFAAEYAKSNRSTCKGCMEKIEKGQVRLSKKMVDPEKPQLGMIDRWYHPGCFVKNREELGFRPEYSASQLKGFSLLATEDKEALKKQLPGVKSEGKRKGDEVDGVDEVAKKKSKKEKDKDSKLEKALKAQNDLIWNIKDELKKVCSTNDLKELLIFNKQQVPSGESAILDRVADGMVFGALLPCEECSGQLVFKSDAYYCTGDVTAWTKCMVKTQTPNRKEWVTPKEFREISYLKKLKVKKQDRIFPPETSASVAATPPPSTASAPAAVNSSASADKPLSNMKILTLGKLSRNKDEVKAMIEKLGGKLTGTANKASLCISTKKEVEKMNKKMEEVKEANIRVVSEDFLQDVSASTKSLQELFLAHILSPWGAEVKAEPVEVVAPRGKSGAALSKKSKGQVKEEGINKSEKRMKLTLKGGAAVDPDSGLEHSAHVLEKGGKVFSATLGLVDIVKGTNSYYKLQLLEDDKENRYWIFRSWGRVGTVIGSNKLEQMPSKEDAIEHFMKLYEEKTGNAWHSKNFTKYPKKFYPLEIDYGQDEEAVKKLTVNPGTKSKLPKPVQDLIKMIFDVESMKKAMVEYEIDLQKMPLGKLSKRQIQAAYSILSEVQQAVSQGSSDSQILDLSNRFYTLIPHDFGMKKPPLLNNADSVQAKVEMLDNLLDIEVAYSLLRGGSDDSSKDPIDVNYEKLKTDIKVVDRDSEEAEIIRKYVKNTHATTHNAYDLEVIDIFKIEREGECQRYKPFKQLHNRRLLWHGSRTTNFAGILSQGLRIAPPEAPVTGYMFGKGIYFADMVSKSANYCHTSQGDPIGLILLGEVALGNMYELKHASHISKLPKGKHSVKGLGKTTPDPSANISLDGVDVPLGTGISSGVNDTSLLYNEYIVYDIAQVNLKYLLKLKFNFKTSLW
T2 sequence (Q86W56 whole entry): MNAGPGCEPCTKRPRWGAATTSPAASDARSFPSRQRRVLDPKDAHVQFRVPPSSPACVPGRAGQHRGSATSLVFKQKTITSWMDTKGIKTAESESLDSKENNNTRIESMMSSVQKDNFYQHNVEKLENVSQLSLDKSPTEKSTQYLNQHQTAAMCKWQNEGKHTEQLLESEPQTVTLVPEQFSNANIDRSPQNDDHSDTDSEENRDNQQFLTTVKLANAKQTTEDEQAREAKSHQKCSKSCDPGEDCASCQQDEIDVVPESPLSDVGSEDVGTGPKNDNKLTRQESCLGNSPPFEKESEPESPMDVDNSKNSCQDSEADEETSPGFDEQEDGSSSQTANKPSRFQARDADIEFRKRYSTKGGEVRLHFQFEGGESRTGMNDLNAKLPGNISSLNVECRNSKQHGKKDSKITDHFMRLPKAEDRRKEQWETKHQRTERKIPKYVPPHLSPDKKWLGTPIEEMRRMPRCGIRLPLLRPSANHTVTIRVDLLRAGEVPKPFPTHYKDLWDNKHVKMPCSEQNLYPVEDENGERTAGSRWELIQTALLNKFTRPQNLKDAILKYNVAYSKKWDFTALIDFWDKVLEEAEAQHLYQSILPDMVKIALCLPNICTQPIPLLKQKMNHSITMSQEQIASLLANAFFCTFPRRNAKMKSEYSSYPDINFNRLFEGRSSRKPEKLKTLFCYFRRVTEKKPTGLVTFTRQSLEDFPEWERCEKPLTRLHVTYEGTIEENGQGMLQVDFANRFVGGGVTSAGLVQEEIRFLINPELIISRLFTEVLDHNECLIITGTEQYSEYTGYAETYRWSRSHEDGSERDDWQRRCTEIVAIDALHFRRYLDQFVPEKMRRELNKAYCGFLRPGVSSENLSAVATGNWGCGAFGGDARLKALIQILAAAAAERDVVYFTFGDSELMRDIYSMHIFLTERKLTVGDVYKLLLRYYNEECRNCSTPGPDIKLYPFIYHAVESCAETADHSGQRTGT
T3 sequence (P09874 whole entry R34G): as the sequence (P09874 whole entry) above, with R34G counted along it
T4 sequence (P09874 whole entry R138I): as the sequence (P09874 whole entry) above, with R138I counted along it

Structure (SMILES): Nc1ncnc2c1ncn2[C@@H]1O[C@H](COP(=O)(O)OP(=O)(O)OP(=O)(O)O)[C@@H](O)[C@H]1O [ATP]
- exonucleotidase activity of PARG (liberation of ADP-ribose) ([1]; 6 mM ATP, long chain polymers as substrate, FIG. 6): activation
- acceleration of decay of longer ADP-ribose oligomers by PARG ([1]; long-chain PAR (average chain length 50 ADPR), PARG 15 mU/assay, FIG. 5): accelerated
- acceleration of degradation of short ADP-ribose oligomers by PARG ([1]; short-chain PAR, PARG 15 mU/assay, FIG. 5): not accelerated
- inhibition of PARP-1 activity in nuclei [2]: 80%
- effect on PARG activity (decay of long PAR polymer) [3]: significantly accelerates
- inhibitory action of ATP on PARP-1 enzymatic activity [4]: abolished
- response to DNA damage by BCNU as assayed by PARP-1 activity, with externally added ATP [5]: completely removed
- effect of the mutation on the inhibitory action of ATP on PARP-1 [6]: negligible effect

Structure (SMILES): O=c1ccc2c(I)c(O)ccc2o1 [drawing 14]
- symptoms of the cancer [7]: markedly reduced

Structure (SMILES): O=c1ccc2c(I)c(O)ccc2o1 [drawing 20]
- symptoms of inflammation [8]: markedly reduced

Structure (SMILES): O=c1ccc2c(I)c(O)ccc2o1 [drawing 26]
- symptoms of CNS disease [9]: markedly reduced

From US20090076122A1, “PARP Modulators and Treatment of Cancer” (BIPAR SCIENCES, INC., priority 2005, published 2009)
